In ChEMBL document CHEMBL1138819, “Synthesis and biological evaluation of pteridine and pyrazolopyrimidine based adenosine kinase inhibitors” (Bioorg Med Chem Lett, 2004):
pIC50: −log10 of the molar value.

biological target: Adenosine kinase (Homo sapiens, UniProt P55263); assay: In vitro inhibitory concentration against Adenosine kinase in cycstolic assay
Sequence (P55263 whole entry): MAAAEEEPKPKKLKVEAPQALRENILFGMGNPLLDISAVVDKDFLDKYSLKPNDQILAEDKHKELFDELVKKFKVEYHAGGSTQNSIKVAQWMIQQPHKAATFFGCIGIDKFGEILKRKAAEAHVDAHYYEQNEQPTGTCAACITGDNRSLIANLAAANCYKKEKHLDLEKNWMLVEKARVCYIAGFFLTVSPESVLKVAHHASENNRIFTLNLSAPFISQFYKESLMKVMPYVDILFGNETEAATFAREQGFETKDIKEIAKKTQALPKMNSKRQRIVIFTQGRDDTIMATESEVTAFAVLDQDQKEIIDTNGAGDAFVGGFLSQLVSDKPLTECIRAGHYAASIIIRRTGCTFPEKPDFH

Question: With Nc1ncnc(C#Cc2ccc(N3CCOCC3)nc2)c1Cc1cccc(Br)c1 as the compound, how does the pIC50 read?
Answer: The pIC50 was 7.66.

Question: How did the pIC50 turn out when CN(Cc1ccccc1)c1c(N)ncnc1C#Cc1ccc(N2CCOCC2)nc1 was run?
Answer: The pIC50 was 7.52.

Question: Cn1nc(-c2cccc(Br)c2)c2c(C#Cc3ccc(N4CCOCC4)nc3)ncnc21 was tested. Which pIC50 did it give?
Answer: Its pIC50 is 7.09.

Question: c1ccc(CCCCNc2ncnc3nc(-c4ccc(N5CCOCC5)nc4)cnc23)cc1 was tested. Which pIC50 did it give?
Answer: Its pIC50 is 7.09.

Question: Nc1ncnc2nc(-c3ccc(N4CCOCC4)nc3)cnc12 was tested. Which pIC50 did it give?
Answer: Its pIC50 is 6.34.

Question: With c1ccc(CCCNc2ncnc3nc(-c4ccc(N5CCOCC5)nc4)cnc23)cc1 as the compound, how does the pIC50 read?
Answer: Its pIC50 is 7.14.

Question: How did the pIC50 turn out when Brc1cccc(-c2[nH]nc3ncnc(C#Cc4ccc(N5CCOCC5)nc4)c23)c1 was run?
Answer: Its pIC50 is 7.66.

Question: With CN(C)c1ccc(C#Cc2[nH]cnc3nnc(-c4cccc(Br)c4)c2-3)cn1 as the compound, how does the pIC50 read?
Answer: Its pIC50 is 7.12.

Question: Nc1ncnc2cc(-c3ccc(N4CCOCC4)nc3)n(Cc3ccccc3)c12 was tested. Which pIC50 did it give?
Answer: Its pIC50 is < 6.00.

Question: CN(C)c1ccc(C#Cc2ncnc3c2c(-c2cccc(Br)c2)nn3C)cn1 was tested. Which pIC50 did it give?
Answer: Its pIC50 is 8.12.

Question: How did the pIC50 turn out when c1ccc(CCNc2ncnc3nc(-c4ccc(N5CCOCC5)nc4)cnc23)cc1 was run?
Answer: Its pIC50 is 6.92.

Question: How did the pIC50 turn out when CN(C)c1ccc(C#Cc2ncnc3n[nH]c(-c4ccccc4)c23)cn1 was run?
Answer: The pIC50 was 7.00.

Question: With Brc1cccc(-c2nn(Cc3ccccc3)c3ncnc(C#Cc4ccc(N5CCOCC5)nc4)c23)c1 as the compound, how does the pIC50 read?
Answer: Its pIC50 is < 6.00.

Question: With c1ccc2c(CCNc3ncnc4nc(-c5ccc(N6CCOCC6)nc5)cnc34)c[nH]c2c1 as the compound, how does the pIC50 read?
Answer: Its pIC50 is 6.52.
